Results on four compounds are retold here after patent US6107317A, “N-(substituted glycyl)-thiazolidines, pharmaceutical compositions containing them and their use in inhibiting dipeptidyl peptidase-IV” (Novartis AG, priority 1999, dated 2000).

Where a name gives a salt, the structure may show the parent alone.

In data set [1] the target is T1, human plasma DPP-IV (Homo sapiens, UniProt P27487).
T1 construct: DPP-IV activity in human and rat plasma; from tissue; host or cells: human plasma
In words: DPP-IV activity in human plasma. Type of data set: biochemical. The settings on record: substrate H-Glycine-Proline-AMC, pH 7.8, room temperature, 20 min. The protocol:
(§1) Briefly, five μl of plasma are added to 96-well flat-bottom mictotiter plates (Falcon), followed by the addition of 5 μl of 80 mM MgCl2 in incubation buffer (25 mM HEPES, 140 mM NaCl, 1% RIA-grade BSA, pH 7.8). After a 5 min. incubation at room temperature, the reaction is initiated by the addition of 10 μl of incubation buffer containing 0.1 mM substrate (H-Glycine-Proline-AMC; AMC is 7-amino-4-methylcoumarin). The plates are covered with aluminum foil (or kept in the dark) and incubated at room temperature for 20 min. […] A fluorescence-concentration curve of free AMC is generated using 0-50 μM solutions of AMC in assay buffer. The curve generated is linear and is used for interpolation of substrate consumption (catalytic activity in nmoles substrate cleaved/min). As with the previous assay, the potency of the test compounds as DPP-IV inhibitors, expressed as IC50, is calculated from 8-point, dose-response curves using a 4 parameter logistic function.

The target of data set [2] is T2, rat plasma DPP-IV (Rattus norvegicus, UniProt P14740).
T2 construct: DPP-IV activity in human and rat plasma; from tissue; host or cells: rat plasma
T2 sequence (P14740 37-767 limits assumed): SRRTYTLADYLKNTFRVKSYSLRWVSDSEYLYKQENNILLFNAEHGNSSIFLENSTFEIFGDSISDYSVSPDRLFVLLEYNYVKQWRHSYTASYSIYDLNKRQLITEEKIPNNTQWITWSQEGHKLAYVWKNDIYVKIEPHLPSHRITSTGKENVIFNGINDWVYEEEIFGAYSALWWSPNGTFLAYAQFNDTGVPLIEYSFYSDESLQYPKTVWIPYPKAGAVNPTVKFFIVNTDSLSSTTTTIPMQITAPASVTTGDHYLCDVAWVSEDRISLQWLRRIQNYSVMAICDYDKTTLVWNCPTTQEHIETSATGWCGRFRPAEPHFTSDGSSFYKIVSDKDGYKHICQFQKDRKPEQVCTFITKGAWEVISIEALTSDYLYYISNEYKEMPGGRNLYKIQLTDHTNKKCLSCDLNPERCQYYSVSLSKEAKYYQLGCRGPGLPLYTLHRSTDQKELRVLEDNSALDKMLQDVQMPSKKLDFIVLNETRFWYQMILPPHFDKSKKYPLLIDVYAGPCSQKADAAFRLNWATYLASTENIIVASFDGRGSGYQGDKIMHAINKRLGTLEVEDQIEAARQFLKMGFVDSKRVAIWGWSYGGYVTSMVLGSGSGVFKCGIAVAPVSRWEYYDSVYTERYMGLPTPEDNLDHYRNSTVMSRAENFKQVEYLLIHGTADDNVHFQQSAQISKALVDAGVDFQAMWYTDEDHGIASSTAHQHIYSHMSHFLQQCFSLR
In words: DPP-IV activity in rat plasma. Type of data set: biochemical. To be noted: substrate H-Glycine-Proline-AMC, pH 7.8, room temperature, 20 min. The protocol:
as §1

The target of data set [3] is T3, DPP-IV (Homo sapiens, UniProt P27487).
T3 construct: host or cells: Caco-2, differentiated to induce DPP-IV expression; cell extract solubilized in 0.5% nonidet-P40
T3 sequence (P27487 whole entry): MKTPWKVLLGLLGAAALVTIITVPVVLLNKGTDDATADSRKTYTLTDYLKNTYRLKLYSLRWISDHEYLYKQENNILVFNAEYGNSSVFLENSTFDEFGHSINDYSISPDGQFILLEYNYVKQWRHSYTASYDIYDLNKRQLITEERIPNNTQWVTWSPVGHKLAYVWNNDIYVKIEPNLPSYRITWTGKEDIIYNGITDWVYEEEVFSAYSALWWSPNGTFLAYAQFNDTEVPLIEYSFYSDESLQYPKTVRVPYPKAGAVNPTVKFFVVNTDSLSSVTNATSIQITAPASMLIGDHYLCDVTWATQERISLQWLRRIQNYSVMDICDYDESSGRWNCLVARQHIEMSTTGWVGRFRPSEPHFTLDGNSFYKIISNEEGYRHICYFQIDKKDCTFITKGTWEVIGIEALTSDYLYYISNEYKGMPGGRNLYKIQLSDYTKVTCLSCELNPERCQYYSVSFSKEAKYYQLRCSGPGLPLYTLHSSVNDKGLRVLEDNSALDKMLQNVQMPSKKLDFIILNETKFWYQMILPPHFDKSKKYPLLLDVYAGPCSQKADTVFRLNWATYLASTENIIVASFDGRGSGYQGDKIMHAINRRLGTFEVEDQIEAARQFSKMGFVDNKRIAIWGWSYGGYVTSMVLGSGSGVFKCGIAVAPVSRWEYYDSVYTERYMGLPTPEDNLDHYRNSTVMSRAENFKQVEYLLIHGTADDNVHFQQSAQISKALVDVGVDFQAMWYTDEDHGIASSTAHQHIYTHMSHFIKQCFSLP
Briefly: Caco-2 DPP-IV Assay (inhibition of DPP-IV activity from human colonic carcinoma cell extracts). Type of data set: biochemical. To be noted: solubilized Caco-2 protein 20 μg; substrate H-Alanine-Proline-pNA; pH 7.4; room temperature, 10 minutes. As for the experimental part:
The human colonic carcinoma cell line Caco-2 was obtained from the American Type Culture Collection (ATCC HTB 37). Differentiation of the cells to induce DPP-IV expression was accomplished as described by Reisher, et al. in an article entitled "Increased expression of . . . intestinal cell line Caco-2" in Proc. Natl. Acad. Sci., Vol. 90, pgs. […] Cell extract is prepared from cells solubilized in 10 mM Tris-HCl, 0.15 M NaCl, 0.04 t.i.u. aprotinin, 0.5% nonidet-P40, pH 8.0, which is centrifuged at 35,000 g for 30 min. at 4° C. to remove cell debris. The assay is conducted by adding 20 μg solubilized Caco-2 protein, diluted to a final volume of 125 μl in assay buffer (25 mM Tris-HCl pH 7.4, 140 mM NaCl, 10 mM KCl, 1% bovine serum albumin) to microtiter plate wells. The reaction is initiated by adding 25μl of 1 mM substrate (H-Alanine-Proline-pNA; pNA is p-nitroaniline). The reaction is run at room temperature for 10 minutes after which time a 19 μl volume of 25% glacial acetic acid is added to stop the reaction. […] A standard curve of free p-nitroaniline is generated using 0-500 μM solutions of free pNA in assay buffer. The curve generated is linear and is used for interpolation of substrate consumption (catalytic activity in nmoles substrate cleaved/min). […] The potency of the test compounds as DPP-IV inhibitors, expressed as IC50, is calculated from 8-point, dose-response curves using a 4-parameter logistic function.

For data set [4] the following is noted: diabetic and non-diabetic subjects, Diabetes, Vol. 44, pgs. 1126-1131; cited from earlier work.

T1 sequence (P27487 39-766 limits assumed): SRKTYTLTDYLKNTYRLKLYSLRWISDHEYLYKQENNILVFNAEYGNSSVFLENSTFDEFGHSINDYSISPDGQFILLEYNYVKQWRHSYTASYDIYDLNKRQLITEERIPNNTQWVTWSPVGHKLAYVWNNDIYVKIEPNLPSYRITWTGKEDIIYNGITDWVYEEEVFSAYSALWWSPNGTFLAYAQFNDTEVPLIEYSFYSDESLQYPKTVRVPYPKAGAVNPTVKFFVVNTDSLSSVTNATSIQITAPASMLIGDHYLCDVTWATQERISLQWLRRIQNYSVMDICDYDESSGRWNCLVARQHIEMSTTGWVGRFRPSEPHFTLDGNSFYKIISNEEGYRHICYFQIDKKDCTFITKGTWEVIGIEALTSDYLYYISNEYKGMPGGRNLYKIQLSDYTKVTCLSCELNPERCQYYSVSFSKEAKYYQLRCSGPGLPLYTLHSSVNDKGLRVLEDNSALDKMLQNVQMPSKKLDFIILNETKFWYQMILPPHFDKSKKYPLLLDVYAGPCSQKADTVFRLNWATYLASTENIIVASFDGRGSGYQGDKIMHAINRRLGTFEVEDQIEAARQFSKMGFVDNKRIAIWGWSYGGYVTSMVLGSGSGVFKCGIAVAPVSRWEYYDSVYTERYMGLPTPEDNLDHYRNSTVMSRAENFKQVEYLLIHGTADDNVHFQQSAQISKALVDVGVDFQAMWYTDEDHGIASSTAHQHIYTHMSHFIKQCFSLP

For the compound `O=C(CNCCNc1ccccn1)N1CCSC1` [Ex. 1, 1-[2-[(pyridin-2-yl)amino]ethylamino]acetylthiazolidine dihydrochloride], the results for the IC50 in data set [1], in data set [2] and in data set [3] were 6.8 µM, 10.5 µM and 10.3 µM, respectively.

`O=C(CNC1(CO)CCCC1)N1CCSC1` [Ex. 2, 1-[(1-hydroxymethylcyclopent-1-yl)amino]acetylthiazolidine hydrochloride]: the IC50 – broadly, the concentration that gives 50% inhibition – in data set [1] was determined as 5.7 µM; in data set [2], 3.3 µM; in data set [3] it was 25.3 µM.

As for `O=C(CNCCNc1ccc(Cl)cn1)N1CCSC1` [Ex. 4, 1-[2-[(5-chloropyridin-2-yl)amino]ethylamino]acetylthiazolidine], the IC50 came out at 21 µM in data set [1], 7.1 µM in data set [2] and 31.1 µM in data set [3].

As to GLP-I amide: GLP-I amide, the “degradation when administered by subcutaneous or intravenous routes” value in data set [4] was “rapidly degraded”.
